Measurements reported in EPA's ToxRefDB 2.

Key:
rat [1] = settings: Subchronic oral toxicity in rodents, fischer, Gavage/Intubation, dose end: 14 week, group: systemic
rat [2] = settings: Carcinogenicity, fischer, Oral, Gavage/Intubation, dose end: 105 week, group: systemic
rat [3] = settings: Multigenerational reproductive toxicity study, sprague dawley, Oral, Gavage/Intubation, dose end: 2 generation
rat [4] = settings: Prenatal developmental toxicity study, sprague dawley, Oral, Gavage/Intubation, dose end: 19 GD
mouse [5] = settings: Carcinogenicity; b6c3f1; Oral; Gavage/Intubation; dose end: 105 week; group: systemic; systemic / pathology microscopic / nose / dilatation + systemic / pathology microscopic / nose / hyperplasia + systemic / pathology …
mouse [6] = settings: Subchronic oral toxicity in rodents, b6c3f1, Gavage/Intubation, dose end: 14 week, group: systemic
rat [7] = settings: Sub-acute repeat dose toxicity, sprague dawley, Oral, Gavage/Intubation, dose end: 14 day, group: systemic
primate [8] = settings: Sub-acute repeat dose toxicity, Oral, Gavage/Intubation, dose end: 23 day, group: systemic
rat [9] = settings: Sub-acute repeat dose toxicity, sprague dawley, Oral, Gavage/Intubation, dose end: 29 day, group: systemic
primate [10] = settings: Sub-acute repeat dose toxicity; Oral; Gavage/Intubation; dose end: 34 day; group: systemic; systemic / pathology microscopic / intestine small / erosion + systemic / pathology microscopic / intestine small / hemorrhage + systemic / …
rat [11] = settings: Subchronic oral toxicity in rodents, fischer, Gavage/Intubation, dose end: 13 week, group: systemic
mouse [12] = settings: Combined chronic toxicity/carcinogenicity, b6c3f1, Oral, Gavage/Intubation, dose end: 2 year, group: systemic
rat [13] = settings: Combined chronic toxicity/carcinogenicity, fischer, Oral, Gavage/Intubation, dose end: 2 year, group: systemic
mouse [14] = settings: Subchronic oral toxicity in rodents, b6c3f1, Gavage/Intubation, dose end: 13 week, group: systemic, systemic / pathology microscopic / kidney / vacuolization cytoplasmic + systemic / pathology microscopic / liver / vacuolization cytoplasmic…
rat [15] = settings: Carcinogenicity, fischer, Oral, Feed, dose end: 2 year, group: systemic
[16] = systemic / clinical chemistry / cytochrome p450, nos / cytochrome p450, nos
[17] = systemic / organ weight / liver / absolute + systemic / organ weight / liver / relative to body weight + systemic / pathology microscopic / …
[18] = systemic / pathology microscopic / nose / atrophy + systemic / pathology microscopic / nose / metaplasia
[19] = group: offspring, developmental / developmental landmark / nipple development / nipple development + systemic / in life observation / body weight / offspring…
[20] = group: offspring, systemic / pathology microscopic / stomach / hyperkeratosis + systemic / pathology microscopic / stomach / hyperplasia
[21] = group: parental, systemic / in life observation / body weight / body weight + systemic / in life observation / body weight / dam weight + systemic / in life …
[22] = group: parental, systemic / organ weight / liver / relative to body weight + systemic / pathology microscopic / stomach / hyperkeratosis + systemic / …
[23] = group: reproductive, reproductive / offspring survival early / live fetuses / live fetuses
[24] = group: developmental, developmental / developmental malformation / bone / unossified + systemic / in life observation / body weight / fetal weight
[25] = group: maternal, systemic / in life observation / body weight / body weight + systemic / in life observation / body weight / body weight gain + systemic / in…
[26] = systemic / organ weight / liver / relative to body weight
[27] = systemic / hematology / platelet / platelet + systemic / in life observation / body weight / body weight gain + systemic / in life …
[28] = systemic / in life observation / body weight / body weight gain
[29] = systemic / clinical chemistry / alanine aminotransferase (alt/sgpt) / alanine aminotransferase (alt/sgpt) + systemic / clinical chemistry / …
[30] = systemic / in life observation / clinical signs / emesis
[31] = systemic / clinical chemistry / [other] / [other] + systemic / clinical chemistry / protein / protein + systemic / hematology / erythrocyte…
[32] = systemic / in life observation / body weight / body weight + systemic / in life observation / mortality / mortality
[33] = systemic / in life observation / body weight / body weight + systemic / pathology microscopic / kidney / vacuolization cytoplasmic + …
[34] = systemic / pathology microscopic / kidney / vacuolization cytoplasmic + systemic / pathology microscopic / liver / vacuolization cytoplasmic…
[35] = systemic / in life observation / body weight / body weight + systemic / in life observation / body weight / body weight gain
[36] = systemic / in life observation / body weight / body weight + systemic / pathology microscopic / urinary bladder / hyperplasia
[37] = systemic / in life observation / body weight / body weight + systemic / pathology microscopic / urinary bladder / hyperplasia + systemic / …

C/C=C/c1ccc(O)c(OC)c1 [Isoeugenol]
LEL (rat [1]; [16]): 75 mg/kg/day | NEL (rat [1]; [16]): 37.5 mg/kg/day | LOAEL (rat [1]; [17]): 600 mg/kg/day | NOAEL (rat [1]; [17]): 300 mg/kg/day | LEL (rat [2]; [18]): 75 mg/kg/day | LOAEL (rat [2]; [18]): 150 mg/kg/day | NEL (rat [2]; [18]): < 75 mg/kg/day | NOAEL (rat [2]; systemic / pathology microscopic / nose / atrophy + systemic / pathology microscopic / nose / metaplasia + systemic / pathology microscopic…): 75 mg/kg/day | LOAEL (rat [3]; [19]): > 700 mg/kg/day | NOAEL (rat [3]; [19]): ≥ 700 mg/kg/day | LEL (rat [3]; [20]): 70 mg/kg/day | NEL (rat [3]; [20]): < 70 mg/kg/day | LOAEL (rat [3]; [21]): > 700 mg/kg/day | NOAEL (rat [3]; [21]): ≥ 700 mg/kg/day | LEL (rat [3]; [22]): 70 mg/kg/day | NEL (rat [3]; [22]): < 70 mg/kg/day | LEL (rat [3]; [23]): 700 mg/kg/day | LOAEL (rat [3]; [23]): > 700 mg/kg/day | NEL (rat [3]; [23]): 230 mg/kg/day | NOAEL (rat [3]; [23]): ≥ 700 mg/kg/day | LEL (rat [4]; [24]): 1000 mg/kg/day | LOAEL (rat [4]; [24]): 1000 mg/kg/day | NEL (rat [4]; [24]): 500 mg/kg/day | NOAEL (rat [4]; [24]): 500 mg/kg/day | LEL (rat [4]; [25]): 250 mg/kg/day | LOAEL (rat [4]; [25]): 250 mg/kg/day | NEL (rat [4]; [25]): < 250 mg/kg/day | NOAEL (rat [4]; [25]): < 250 mg/kg/day | LEL (mouse [5]): 75 mg/kg/day | LOAEL (mouse [5]): 75 mg/kg/day | NEL (mouse [5]): < 75 mg/kg/day | NOAEL (mouse [5]): < 75 mg/kg/day | LEL (mouse [6]; [26]): 37.5 mg/kg/day | NEL (mouse [6]; [26]): < 37.5 mg/kg/day | LOAEL (mouse [6]; systemic / pathology microscopic / nose / atrophy + systemic / in life observation / body weight / body weight + systemic / in life …): 600 mg/kg/day | NOAEL (mouse [6]; systemic / pathology microscopic / nose / atrophy + systemic / organ weight / lung / absolute): 300 mg/kg/day

NC(=O)n1c(O)c(C(=O)c2ccc(Cl)s2)c2cc(Cl)ccc21
LOAEL (rat [7]; [27]): > 100 mg/kg/day | NOAEL (rat [7]; [27]): ≥ 100 mg/kg/day | LEL (rat [7]; [28]): 10 mg/kg/day | NEL (rat [7]; [28]): < 10 mg/kg/day | LOAEL (primate [8]; [29]): > 30 mg/kg/day | NOAEL (primate [8]; [29]): ≥ 30 mg/kg/day | LEL (primate [8]; [30]): 1 mg/kg/day | NEL (primate [8]; [30]): < 1 mg/kg/day | LOAEL (rat [9]; [31]): > 30 mg/kg/day | NEL (rat [9]; [31]): 3 mg/kg/day | NOAEL (rat [9]; [31]): ≥ 30 mg/kg/day | LEL (rat [9]; systemic / clinical chemistry / protein / protein + systemic / hematology / erythrocyte (rbc) count differential / erythrocyte (rbc) + …): 10 mg/kg/day | LEL (primate [10]): 3 mg/kg/day | LOAEL (primate [10]): > 10 mg/kg/day | NEL (primate [10]): 1 mg/kg/day | NOAEL (primate [10]): ≥ 10 mg/kg/day

CC(=O)OC(C)c1ccccc1 (stereo not drawn) [Benzenemethanol, alpha-methyl-, acetate]
LOAEL (rat [11]; systemic / in life observation / body weight / body weight): 4000 mg/kg/day | NEL (rat [11]; [32]): 2000 mg/kg/day | NOAEL (rat [11]; [32]): 2000 mg/kg/day | LEL (rat [11]; systemic / in life observation / body weight / body weight + systemic / in life observation / mortality / mortality + systemic / pathology …): 4000 mg/kg/day | LOAEL (mouse [12]; [33]): 1000 mg/kg/day | NOAEL (mouse [12]; [33]): 500 mg/kg/day | LEL (mouse [12]; [34]): 500 mg/kg/day | NEL (mouse [12]; [34]): < 500 mg/kg/day | LEL (rat [13]; [35]): 1000 mg/kg/day | NEL (rat [13]; [35]): < 1000 mg/kg/day | LOAEL (rat [13]; systemic / in life observation / body weight / body weight + systemic / pathology microscopic / kidney / nephropathy): 2000 mg/kg/day | NOAEL (rat [13]; systemic / in life observation / body weight / body weight + systemic / pathology microscopic / kidney / nephropathy + systemic / in life …): 1000 mg/kg/day | LEL (mouse [14]): 2000 mg/kg/day | LOAEL (mouse [14]): 2000 mg/kg/day | NEL (mouse [14]): 1000 mg/kg/day | NOAEL (mouse [14]): 1000 mg/kg/day

Cc1ccccc1N.Cl [2-Methylaniline hydrochloride]
LOAEL (rat [15]; [36]): 300 mg/kg/day | NOAEL (rat [15]; [36]): < 300 mg/kg/day | LEL (rat [15]; [37]): 300 mg/kg/day | NEL (rat [15]; [37]): < 300 mg/kg/day
